{"source": "paper PMC9603521", "about": "“WYBQ-4: a New Bactericidal Agent against Methicillin-Resistant Staphylococcus aureus” (Microbiology Spectrum, 2022)", "key": {"Streptococcus pyogenes": {"system": "Streptococcus pyogenes", "assay": "MIC by broth microdilution (CLSI)", "assay_type": "cell-based"}, "PBP2a [1]": {"molecular_target": "PBP2a (Staphylococcus aureus, UniProt P07944)", "sequence (P07944 whole entry)": "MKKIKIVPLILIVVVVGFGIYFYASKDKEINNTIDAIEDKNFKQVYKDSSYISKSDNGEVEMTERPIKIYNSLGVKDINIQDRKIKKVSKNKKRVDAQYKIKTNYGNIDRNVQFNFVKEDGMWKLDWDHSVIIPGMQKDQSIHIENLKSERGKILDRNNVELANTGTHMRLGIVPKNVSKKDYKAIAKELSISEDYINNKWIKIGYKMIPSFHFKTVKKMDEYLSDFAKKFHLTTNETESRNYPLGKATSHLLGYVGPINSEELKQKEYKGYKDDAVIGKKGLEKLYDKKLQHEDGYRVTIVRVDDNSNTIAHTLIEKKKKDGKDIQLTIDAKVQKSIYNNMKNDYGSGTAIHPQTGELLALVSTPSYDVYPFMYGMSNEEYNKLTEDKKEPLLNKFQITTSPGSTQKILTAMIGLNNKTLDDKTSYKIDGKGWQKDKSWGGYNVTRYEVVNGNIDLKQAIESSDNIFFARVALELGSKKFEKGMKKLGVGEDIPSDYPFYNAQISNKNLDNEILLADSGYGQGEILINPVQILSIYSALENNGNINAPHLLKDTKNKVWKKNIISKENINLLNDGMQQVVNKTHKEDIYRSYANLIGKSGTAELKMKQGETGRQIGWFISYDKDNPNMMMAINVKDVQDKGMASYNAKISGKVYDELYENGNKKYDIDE", "assay": "Dissociation equilibrium constant (Ks) by BOCILLIN FL method", "assay_type": "binding, MRSA", "procedure": "Α = A + ∆ε E (k∗ ∕ (k∗ + k∗)(1 − exp (−(k∗ + k∗)t)) + k N ∆ε Ε t (2)\nWhere kn* is the pseudo-first-order rate constant for acylation by nitrocefin at the concentration (N0) employed (0.1 mM), ki* the pseudo-first-order rate constant for the reaction of PBP2a with the WYBQ-4, E0 the initial enzyme concentration (2.5 µM), and k0 the second-order rate constant of nonspecific nitrocefin hydrolysis. Second-order rate constants (ki) for acylation were calculated from a linear least-squares fit to a plot of the apparent first-order rate constants (ki*) against the concentration of WYBQ-4. All plots were linear for the concentrations of WYBQ-4 used.\nDetermination of dissociation equilibrium constants (Ks) of WYBQ-4 and PBP2a The dissociation equilibrium constant (Ks) of PBP2a with WYBQ-4 were determined by the BOCILLIN method (2), as previously described. […] Samples (30 μL) were loaded onto a 10% SDS-polyacrylamide gel, which was developed and then observed using a fluorescence imager to calculate the grayscale curve. […]\nThe deacylation rate constants for wild-type PBP2a were determined using BOCILLIN FL as a reporter molecule. […]\nThe mixture was diluted 5 times with buffer and incubated at room temperature for different time intervals. […] Grayscale analysis was performed by imageJ and the rate constant k3 for the deacylation reaction of WYBQ-4 with PBP2a was determined based on eqn (3): […]"}, "clinically isolated MRSA": {"system": "clinically isolated MRSA", "assay": "MIC against clinical isolates", "assay_type": "cell-based, Staphylococcus aureus", "details": "controls moxalactam and cefepime", "procedure": "(§1) The clinical strains of MRSA and MSSA isolated in Beijing, Sichuan, and Shanghai in the last 3 years totaled more than 300 strains. Clinical isolates were stored at −80°C in 20% glycerol-rich brain heart infusion (BHI) and passaged twice on Trypticase soy agar prior to the experiment. Before the experiment, 16s RNA identification was performed, and then PCR was used to distinguish MRSA and MSSA by identifying the mecA gene. Furthermore, the MIC of cefoxitin against clinical isolates was tested again. The drug sensitivity results were judged according to the criteria established by the American Society for Clinical Laboratory Standardization. MRSA was determined by a cefoxitin MIC of ≥8 μg/mL ([36]). Finally, 100 strains each of MRSA and MSSA were randomly selected from the identified strains for subsequent experiments. All chemical reagents and antibiotics were purchased from Sigma (St. Louis, MO). S. aureus was grown at 30°C in BHI broth (Oxoid) with constant shaking or on BHI agar plates unless otherwise noted. […]\n(§2) The antibacterial spectrum and susceptibility of WYBQ-4 against MRSA USA300, MSSA 29213, and clinically isolated S. aureus were determined using a broth microdilution method following the guidelines outlined by the Clinical and Laboratory Standards Institute (CLSI) ([37], [38]). […] The absorbance was measured at 600 nm, and experiments were repeated in three biological replicates."}, "clinically isolated MSSA": {"system": "clinically isolated MSSA", "assay": "MIC against clinical isolates", "assay_type": "cell-based, Staphylococcus aureus", "details": "controls moxalactam and cefepime", "procedure": "as §1, §2"}, "PBP4": {"molecular_target": "PBP4 (Staphylococcus aureus, UniProt P72355)", "sequence (P72355 25-431)": "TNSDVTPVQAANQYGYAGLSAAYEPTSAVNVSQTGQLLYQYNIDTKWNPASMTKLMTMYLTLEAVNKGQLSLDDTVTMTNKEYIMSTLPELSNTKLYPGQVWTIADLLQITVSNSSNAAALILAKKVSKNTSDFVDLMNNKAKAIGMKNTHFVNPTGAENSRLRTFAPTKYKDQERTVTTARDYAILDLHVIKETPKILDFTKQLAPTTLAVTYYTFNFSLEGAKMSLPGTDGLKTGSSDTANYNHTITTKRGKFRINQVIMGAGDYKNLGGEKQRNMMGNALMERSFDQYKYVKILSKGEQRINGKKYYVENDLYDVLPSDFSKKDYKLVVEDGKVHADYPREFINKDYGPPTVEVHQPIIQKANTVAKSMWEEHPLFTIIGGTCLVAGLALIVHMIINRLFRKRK", "assay": "PBP binding, bocillin competition fluorescence gel assay", "details": "dose-dependent", "procedure": "(§3) Using the genome of S. aureus USA300 as a template, PCR was performed to amplify PBP1, PBP2, PBP3, PBP4, and PBP2a genes with primers designed according to Table 1. Then, the amplified fragments were treated with BamHI/XhoI and then inserted into the cloning site of the BamHI/XhoI-digested pET28a to yield pET28a-PBP1, pET28a-PBP2, pET28a-PBP3, pET28a-PBP4, and pET28a-PBP2a, respectively. The plasmid was transformed into E. coli BL21(DE3) and cultured in LB medium containing Kan resistance until the OD600 reached 0.6, and PBP expression was induced overnight at 16°C by adding 0.5 mM IPTG (isopropyl-β-D-thiogalactopyranoside). The bacteria were then lysed by sonication, the […] was collected, and the proteins were purified using a HIS-Select nickel affinity gel system (Beyotime, Shanghai, China).\n(§4) PBP binding assays were performed as previously described ([30], [31]). Selective labeling of PBP from preincubated samples ([…] protein) with various concentrations of WYBQ-4 was performed for 15 min, and then 25 μM BOCILLIN FL (Invitrogen) was added, followed by an additional 10 min at 37°C. Proteins were separated by SDS-PAGE, and the PBPs were detected by a gel fluorescence imaging instrument (excitation, 488 nm; emission, 530 nm)."}, "PBP2a [2]": {"molecular_target": "PBP2a (Staphylococcus aureus, UniProt Q53707)", "sequence (Q53707 entry or part of it)": "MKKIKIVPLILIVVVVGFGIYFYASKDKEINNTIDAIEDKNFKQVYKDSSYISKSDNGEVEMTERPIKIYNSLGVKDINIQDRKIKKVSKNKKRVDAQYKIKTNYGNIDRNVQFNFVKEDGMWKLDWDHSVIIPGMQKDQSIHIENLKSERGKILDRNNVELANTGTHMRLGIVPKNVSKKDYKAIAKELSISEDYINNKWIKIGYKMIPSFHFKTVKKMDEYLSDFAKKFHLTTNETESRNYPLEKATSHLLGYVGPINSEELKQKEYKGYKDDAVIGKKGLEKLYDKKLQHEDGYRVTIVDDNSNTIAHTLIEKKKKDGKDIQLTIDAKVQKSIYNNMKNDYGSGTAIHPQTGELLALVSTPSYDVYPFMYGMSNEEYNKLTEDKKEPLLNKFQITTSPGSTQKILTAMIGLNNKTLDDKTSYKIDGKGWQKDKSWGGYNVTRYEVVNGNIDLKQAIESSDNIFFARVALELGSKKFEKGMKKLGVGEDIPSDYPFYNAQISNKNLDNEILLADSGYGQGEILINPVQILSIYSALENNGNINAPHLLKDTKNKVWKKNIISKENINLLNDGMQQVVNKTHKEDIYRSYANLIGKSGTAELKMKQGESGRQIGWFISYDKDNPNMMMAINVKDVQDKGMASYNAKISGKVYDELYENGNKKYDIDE", "assay": "PBP binding, bocillin competition fluorescence gel assay", "procedure": "as §3, §4"}, "PBP3": {"molecular_target": "PBP3 (Staphylococcus aureus, UniProt Q9XDB3)", "sequence (Q9XDB3 1-691)": "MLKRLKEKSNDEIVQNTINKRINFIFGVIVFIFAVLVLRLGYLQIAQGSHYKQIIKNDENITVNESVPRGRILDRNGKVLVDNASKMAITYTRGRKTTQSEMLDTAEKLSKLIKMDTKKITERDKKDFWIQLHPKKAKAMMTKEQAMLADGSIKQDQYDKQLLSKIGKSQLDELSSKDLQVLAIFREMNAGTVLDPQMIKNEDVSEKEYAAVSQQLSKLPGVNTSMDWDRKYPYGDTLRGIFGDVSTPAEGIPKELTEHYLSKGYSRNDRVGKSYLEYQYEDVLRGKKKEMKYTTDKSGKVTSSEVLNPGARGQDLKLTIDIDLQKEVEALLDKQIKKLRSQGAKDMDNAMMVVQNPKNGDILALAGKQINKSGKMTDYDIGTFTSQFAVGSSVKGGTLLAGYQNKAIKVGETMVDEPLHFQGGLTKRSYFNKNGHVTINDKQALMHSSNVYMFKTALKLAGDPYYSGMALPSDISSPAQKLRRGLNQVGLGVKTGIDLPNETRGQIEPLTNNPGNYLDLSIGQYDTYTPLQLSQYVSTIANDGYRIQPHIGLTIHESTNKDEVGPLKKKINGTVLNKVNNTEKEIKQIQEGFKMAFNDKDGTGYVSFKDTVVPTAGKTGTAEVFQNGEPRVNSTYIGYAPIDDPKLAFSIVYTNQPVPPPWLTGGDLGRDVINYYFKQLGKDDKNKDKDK", "assay": "PBP binding, bocillin competition fluorescence gel assay", "details": "dose-dependent", "procedure": "as §3, §4"}, "PBP2": {"molecular_target": "PBP2 (Staphylococcus aureus, UniProt Q9R744)", "sequence (Q9R744 1-727)": "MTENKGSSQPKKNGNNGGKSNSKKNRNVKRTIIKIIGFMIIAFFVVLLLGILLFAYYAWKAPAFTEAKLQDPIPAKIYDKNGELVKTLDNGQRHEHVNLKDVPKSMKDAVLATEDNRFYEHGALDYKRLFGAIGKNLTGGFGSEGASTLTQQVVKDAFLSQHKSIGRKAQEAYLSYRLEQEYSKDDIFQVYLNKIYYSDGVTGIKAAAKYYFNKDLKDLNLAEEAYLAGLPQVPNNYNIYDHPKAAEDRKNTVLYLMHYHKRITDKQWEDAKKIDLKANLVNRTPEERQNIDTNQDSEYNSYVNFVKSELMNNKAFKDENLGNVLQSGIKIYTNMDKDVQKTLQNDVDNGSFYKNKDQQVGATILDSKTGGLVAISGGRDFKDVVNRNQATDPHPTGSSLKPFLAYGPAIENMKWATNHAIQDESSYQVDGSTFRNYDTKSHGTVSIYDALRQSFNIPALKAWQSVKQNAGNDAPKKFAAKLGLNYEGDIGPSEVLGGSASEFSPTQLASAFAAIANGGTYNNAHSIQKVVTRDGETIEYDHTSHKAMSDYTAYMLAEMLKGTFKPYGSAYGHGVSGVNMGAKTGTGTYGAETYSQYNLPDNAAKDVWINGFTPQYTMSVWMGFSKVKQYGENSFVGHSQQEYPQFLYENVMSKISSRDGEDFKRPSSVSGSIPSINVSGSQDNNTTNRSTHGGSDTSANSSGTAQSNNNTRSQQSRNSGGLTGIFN", "assay": "PBP binding, bocillin competition fluorescence gel assay", "procedure": "as §3, §4"}, "PBP1": {"molecular_target": "PBP1 (Staphylococcus aureus, UniProt Q53725)", "sequence (Q53725 1-744)": "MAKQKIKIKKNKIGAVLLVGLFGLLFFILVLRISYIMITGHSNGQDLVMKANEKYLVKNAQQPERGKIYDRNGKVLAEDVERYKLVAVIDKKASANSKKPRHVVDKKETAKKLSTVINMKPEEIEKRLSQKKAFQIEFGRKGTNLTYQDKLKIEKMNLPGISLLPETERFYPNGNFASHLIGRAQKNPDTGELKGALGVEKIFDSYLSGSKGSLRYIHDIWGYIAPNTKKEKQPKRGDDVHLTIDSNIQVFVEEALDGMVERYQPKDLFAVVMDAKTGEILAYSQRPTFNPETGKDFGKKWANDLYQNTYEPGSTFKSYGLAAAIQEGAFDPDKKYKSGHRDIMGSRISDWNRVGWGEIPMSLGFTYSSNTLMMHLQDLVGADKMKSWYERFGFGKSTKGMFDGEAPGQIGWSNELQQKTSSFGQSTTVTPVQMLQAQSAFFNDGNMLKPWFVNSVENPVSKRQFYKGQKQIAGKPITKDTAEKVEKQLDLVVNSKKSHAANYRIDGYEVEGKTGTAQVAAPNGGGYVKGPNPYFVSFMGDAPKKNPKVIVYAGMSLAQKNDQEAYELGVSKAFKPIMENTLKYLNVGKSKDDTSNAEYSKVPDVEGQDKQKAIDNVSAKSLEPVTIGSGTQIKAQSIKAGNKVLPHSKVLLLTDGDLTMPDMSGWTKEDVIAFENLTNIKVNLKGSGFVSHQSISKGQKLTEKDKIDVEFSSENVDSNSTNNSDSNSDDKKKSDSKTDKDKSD", "assay": "PBP binding, bocillin competition fluorescence gel assay", "details": "dose-dependent", "procedure": "as §3, §4"}}, "data": [{"smiles": "C#CCO[C@@]1(NC(=O)CSc2cccc(C)c2)C(=O)N2C(C(=O)O)=C(CSc3nnnn3C)CSC21", "note": "(stereo partly shown) [WYBQ-4]", "values": [{"measurement": "MIC", "setting": "Streptococcus pyogenes", "value": 1, "unit": "µg/mL"}, {"measurement": "Kd", "setting": "PBP2a [1]", "value": "28 ± 1.24", "unit": "µM"}, {"measurement": "bacteriostatic activity (MIC) versus control drugs", "setting": "clinically isolated MRSA", "value": "better bacteriostatic activity than the control drugs"}, {"measurement": "bacteriostatic activity (MIC) versus control drugs", "setting": "clinically isolated MSSA", "value": "better bacteriostatic activity than the control drugs"}, {"measurement": "affinity for PBP4 (bocillin competition)", "setting": "PBP4", "value": "had an affinity"}, {"measurement": "IC50", "setting": "PBP2a [2]", "value": 3.66, "unit": "µM"}, {"measurement": "concentration that completely competed for the binding of bocillin", "setting": "PBP2a [2]; PBP2a", "value": 2, "unit": "µg/mL"}, {"measurement": "affinity for PBP3 (bocillin competition)", "setting": "PBP3", "value": "had an affinity"}, {"measurement": "concentration at which bocillin fluorescence disappeared completely", "setting": "PBP2", "value": 0.25, "unit": "µg/mL"}, {"measurement": "affinity for PBP1 (bocillin competition)", "setting": "PBP1", "value": "had an affinity"}]}]}
